Where “and” joins values, the source holds several entries; their conditions need not be identical. Equal entries are not always repeated.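 Briefly, cells in 96-well plates were exposed to five compound concentrations for 48 h, and endpoints were estimated by linear interpolation. GI50 is the concentration that inhibits growth by half. At the TGI there is no net growth.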
Tests used:
Assay in all cases: NCI-60 cell line screen, 48 h
MDA-MB-231 breast = tested on: MDA-MB-231 breast
HCT-116 colon = tested on: HCT-116 colon
HCC-2998 colon = tested on: HCC-2998 colon
COLO 205 colon = tested on: COLO 205 colon
OVCAR-5 ovarian = tested on: OVCAR-5 ovarian
MALME-3M melanoma = tested on: MALME-3M melanoma
NCI-H23 lung = tested on: NCI-H23 lung
SF-268 CNS = tested on: SF-268 CNS
SW-620 colon = tested on: SW-620 colon
OVCAR-4 ovarian = tested on: OVCAR-4 ovarian

SMILES	GI50 (MDA-MB-231 breast)	TGI (MDA-MB-231 breast)	GI50 (HCT-116 colon)	TGI (HCT-116 colon)	GI50 (HCC-2998 colon)	TGI (HCC-2998 colon)	GI50 (COLO 205 colon)	TGI (COLO 205 colon)	GI50 (OVCAR-5 ovarian)	TGI (OVCAR-5 ovarian)	GI50 (MALME-3M melanoma)	TGI (MALME-3M melanoma)	GI50 (NCI-H23 lung)	TGI (NCI-H23 lung)	GI50 (SF-268 CNS)	TGI (SF-268 CNS)	GI50 (SW-620 colon)	TGI (SW-620 colon)	GI50 (OVCAR-4 ovarian)	TGI (OVCAR-4 ovarian)
Cc1ncc(C(=O)Nc2ccc(CN3CCN(C)CC3)c(C(F)(F)F)c2)cc1C#Cc1cnc(N)c2cnccc12	0.0289 µM	0.165 µM	0.0434 µM	1.23 µM	0.133 µM	15.2 µM	0.0276 µM	3.74 µM	0.076 µM	10.6 µM	< 0.0113 µM	0.042 µM	0.0873 µM	10.5 µM	0.0791 µM	11.7 µM	0.0649 µM	1.39 µM	0.0447 µM	4.25 µM
CNC1C(O)C(OC2C(N)CC(N)C(OC3OC(CN)=CCC3N)C2O)OCC1(C)O (stereo not drawn)	–	> 100 µM	–	> 100 µM	–	> 100 µM	–	> 100 µM	–	> 100 µM	–	> 100 µM	–	> 100 µM	–	> 100 µM	–	> 100 µM	–	–
CCCOc1ccc(-c2nc(-c3ccc(N=Cc4ccc(N(CCOS(C)(=O)=O)CCOS(C)(=O)=O)cc4C)cc3)cs2)cc1	–	86 µM	–	> 85.2 µM	–	26.8 µM	–	14.9 µM	–	> 71.7 µM	–	> 95.6 µM	–	30.8 µM	–	77.8 µM	–	> 100 µM	–	81.9 µM
COC(=O)[C@@]1(Cc2ccccc2)[C@H]2c3cc(C(=O)N4CCCC4)n(Cc4ccc(OC)c(OC)c4)c3C[C@H]2CN1C(=O)c1ccccc1	8.17 µM	21.4 µM	7.28 µM	13.8 µM	8.86 µM	15.8 µM	5.83 µM	12.4 µM	9.19 µM	21.8 µM	10.4 µM	21 µM	11.6 µM	36.1 µM	13.3 µM	> 50 µM	6.92 µM	13.4 µM	16.4 µM	> 50 µM
O=C1/C=C/[C@@H](O)[C@@H]2C[C@@H](O)C[C@H]2/C=C/CCC[C@H](CCc2ccc(C(F)(F)F)cc2)O1	0.185 µM	0.368 µM	0.251 µM	0.607 µM	0.238 µM	3.87 µM	0.175 µM	0.319 µM	0.505 µM	> 100 µM	0.364 µM	2.88 µM	0.236 µM	1.57 µM	0.371 µM	> 100 µM	0.297 µM	1.27 µM	0.198 µM	2.78 µM
COc1ccc(-c2nsc3c2NC(=O)CC3c2ccc(F)cc2)cc1 (stereo not drawn)	6.68 µM	> 100 µM	3.95 µM	> 100 µM	> 21.7 µM	> 100 µM	2.49 µM	8.39 µM	5.94 µM	> 100 µM	10.3 µM	> 100 µM	6.1 µM	> 100 µM	10.2 µM	> 100 µM	2.77 µM	> 100 µM	12.7 µM	> 100 µM
CN[C@@H](C)C(=O)N[C@H]1CN(C(=O)CC(C)C)CC[C@H]2CC[C@@H](C(=O)NC(c3ccccc3)c3ccccc3)N2C1=O	0.642 µM	5.7 µM	> 100 µM	> 100 µM	> 100 µM	> 100 µM	> 79.8 µM	> 100 µM	> 100 µM	> 100 µM	4.29 µM	> 53.9 µM	27.6 µM	> 100 µM	> 100 µM	> 100 µM	> 100 µM	> 100 µM	0.664 µM	8.42 µM
C/C1=C/C(=O)O[C@@H]2C[C@@H](CC[C@H](C)/C=C\C=C\CC1)O[C@@](O)([C@@H]1CSC(=O)N1CO)C2	0.0634 µM	> 60.4 µM	0.194 µM	20 µM	13 µM	65.4 µM	0.0374 µM	0.146 µM	0.0367 µM	> 33.9 µM	0.0962 µM	21 µM	0.151 µM	30.4 µM	0.0418 µM	0.198 µM	12.6 µM	30 µM	0.176 µM	20.4 µM
Cc1ccc2c(c1)C(C)Cc1c(ncnc1-n1cnc3cc(C)ccc31)N2C (stereo not drawn)	0.0416 µM	13.4 µM	0.0316 µM	5.21 µM	0.0422 µM	16.3 µM	0.0224 µM	0.0553 µM	0.048 µM	22.2 µM	11 µM	23.7 µM	0.0567 µM	21.5 µM	0.045 µM	12.3 µM	0.0417 µM	15.9 µM	0.0729 µM	19 µM
COC(=O)[C@H]1C(=O)[C@@]2(C)[C@H]([C@H](OC(=O)c3ccccc3)[C@]3(O)C[C@H](OC(=O)[C@H](O)[C@@H](NC(=O)c4ccc(F)cc4)c4ccccc4)C(C)=C1C3(C)C)[C@]1(OC(C)=O)CO[C@@H]1C[C@@H]2O	0.0414 µM	> 14.4 µM	0.00432 µM	> 25 µM	0.00909 µM	> 9.55 µM	0.00709 µM	0.0565 µM	0.0149 µM	> 25 µM	0.0187 µM	> 25 µM	0.0202 µM	> 25 µM	0.0151 µM	> 25 µM	0.00821 µM	> 25 µM	0.633 µM	> 25 µM
COc1cc2c3c(c4ccc(OC)c(OC)c4c2cc1OC)CN1CCC[C@@H]1C3	–	0.156 µM	–	3.1 µM	–	1.78 µM	–	–	–	17.1 µM	–	0.509 µM	–	0.637 µM	–	2.38 µM	–	> 47.7 µM	–	1.42 µM
COc1cc(-c2nc(NC(C)=O)sc2-c2ccnc(NCCNS(=O)(=O)c3ccccc3)n2)ccc1Cl	3.81 µM	> 100 µM	3.17 µM	35.7 µM	20.9 µM	> 100 µM	2.21 µM	6.01 µM	9.77 µM	> 100 µM	3.8 µM	> 100 µM	5 µM	> 100 µM	4.25 µM	> 100 µM	4.37 µM	> 100 µM	3.58 µM	> 100 µM
CN1CCC(CNc2ccc3ncc(-c4cccc(OC(F)(F)F)c4)n3n2)CC1	1.62 µM and 1.26 µM	3.65 µM and 2.77 µM	1.83 µM and 1.7 µM	3.94 µM and 4.33 µM	1.57 µM and 1.45 µM	3.15 µM and 3.32 µM	1.59 µM and 1.47 µM	3.07 µM and 3.08 µM	2.68 µM and 2.95 µM	8.32 µM and > 10 µM	1.64 µM and 1.65 µM	3.25 µM and 3.23 µM	2.47 µM and 3.96 µM	9.48 µM and > 10 µM	1.57 µM and 3.2 µM	3.64 µM and > 10 µM	2.03 µM and 2.13 µM	4.77 µM and 6.09 µM	2.39 µM and 3.81 µM	8.21 µM and > 10 µM
